For assay [1], the target named is AktK (Homo sapiens, UniProt P31749). Briefly: Luciferase-coupled chemiluminescence kinase assay (ATP consumption). The following applies: read-out: AKT-1 IC50. In kind it is biochemical. In a few lines:
(§1)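 Enzyme at 2.5-5 nM was preincubated 30 min at room temperature with compound in Tris pH 7.5, MgCl2, TX-100, DTT, then reacted with ATP for 3 h at ambient temperature. Remaining ATP was quantified by luciferase-luciferin chemiluminescence, with consumption kept at 25-60%; […].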

Assay [2] concerns the target p70S6K (Homo sapiens, UniProt P23443). The assay is described as above. Type of assay: biochemical. Put shortly: as §1

Read-outs that look alike come from different tables or passages of the source. Where only a bound is given, the exact number is not on record here.

Chain of p70S6K (P23443 whole entry): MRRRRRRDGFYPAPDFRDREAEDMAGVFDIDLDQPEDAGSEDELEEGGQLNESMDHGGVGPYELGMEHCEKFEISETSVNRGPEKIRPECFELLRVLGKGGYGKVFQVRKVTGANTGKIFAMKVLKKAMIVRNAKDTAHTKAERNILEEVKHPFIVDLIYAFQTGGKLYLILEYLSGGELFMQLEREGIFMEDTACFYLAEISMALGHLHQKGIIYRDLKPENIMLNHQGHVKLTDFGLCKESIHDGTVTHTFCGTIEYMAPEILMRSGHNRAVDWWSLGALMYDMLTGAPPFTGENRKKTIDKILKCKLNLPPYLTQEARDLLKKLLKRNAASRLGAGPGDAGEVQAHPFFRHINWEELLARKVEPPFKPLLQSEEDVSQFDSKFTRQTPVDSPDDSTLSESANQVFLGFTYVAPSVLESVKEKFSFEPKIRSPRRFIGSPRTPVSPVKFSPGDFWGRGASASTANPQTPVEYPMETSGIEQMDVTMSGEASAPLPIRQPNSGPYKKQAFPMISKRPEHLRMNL
Chain of AktK (P31749 whole entry): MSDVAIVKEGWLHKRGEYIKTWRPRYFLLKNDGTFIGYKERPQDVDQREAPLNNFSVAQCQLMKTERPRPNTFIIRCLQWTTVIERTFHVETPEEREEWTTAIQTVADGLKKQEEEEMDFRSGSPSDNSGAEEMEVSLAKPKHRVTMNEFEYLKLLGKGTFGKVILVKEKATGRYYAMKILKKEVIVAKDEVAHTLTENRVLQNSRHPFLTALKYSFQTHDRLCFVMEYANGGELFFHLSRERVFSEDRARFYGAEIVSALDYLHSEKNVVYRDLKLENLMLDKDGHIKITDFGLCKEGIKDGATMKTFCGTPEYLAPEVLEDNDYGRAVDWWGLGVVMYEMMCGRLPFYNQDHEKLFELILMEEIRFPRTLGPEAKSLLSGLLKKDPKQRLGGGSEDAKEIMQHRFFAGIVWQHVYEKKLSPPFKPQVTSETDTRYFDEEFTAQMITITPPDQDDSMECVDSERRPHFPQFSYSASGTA

With `Cc1c(NCCN2CCCC2)cc(Cl)cc1N1CCN(c2ncnc3[nH]nc(Br)c23)CC1` [Entry 29, 3-[4-(3-bromo-1H-pyrazolo[3,4-d]pyrimidin-4-yl)piperazin-1-yl]-5-chloro-2-methyl-N-(2-pyrrolidin-1-ylethyl)aniline], the concentration for half-maximal inhibition (IC50) was under 100 nM in assay [1] (Table 1, class symbols per key) and under 100 nM in assay [2] (Table 1, class symbols per key).
On to `Cn1c(CCCO)nc2c(N3CCN(c4ncnc5[nH]nc(Br)c45)CC3)cc(C(F)(F)F)cc21` [Entry 273, 3-[4-[4-(3-bromo-1H-pyrazolo[3,4-d]pyrimidin-4-yl)piperazin-1-yl]-1-methyl-6-(trifluoromethyl)-1H-benzimidazol-2-yl]propan-1-ol], for which the half-maximal inhibitory concentration (IC50) in assay [1] (Table 1, class symbols per key) is 100 to 1000 nM; in assay [2] (Table 1, class symbols per key) it was under 100 nM.
For `CCc1n[nH]c2ncnc(N3CCN(c4cc(Cl)cc(OCCN5CCN(CC)CC5)c4C)CC3)c12` [Entry 25, 4-[4-(5-chloro-3-{[2-(4-ethylpiperazin-1-yl)ethyl]oxy}-2-methylphenyl)piperazin-1-yl]-3-ethyl-1H-pyrazolo[3,4-d]pyrimidine], the IC50 was 1000 to 10000 nM in assay [1] (Table 1, class symbols per key) and under 100 nM in assay [2] (Table 1, class symbols per key).
On the same counts, the results for `Cc1ccc(-c2ccccc2OCCCN(C)C)cc1N1CCN(c2ncnc3[nH]nc(Br)c23)CC1` [Entry 276, 3-({3′-[4-(3-bromo-1H-pyrazolo[3,4-d]pyrimidin-4-yl)piperazin-1-yl]-4′-methylbiphenyl-2-yl}oxy)-N,N-dimethylpropan-1-amine] are under 100 nM and under 100 nM.
Turning to `CCN(CC)CCNc1cc(Cl)cc(N2CCN(c3ncnc4[nH]nc(Br)c34)CC2)c1C` [Entry 28, N′-{3-[4-(3-bromo-1H-pyrazolo[3,4-d]pyrimidin-4-yl)piperazin-1-yl]-5-chloro-2-methylphenyl}-N,N-diethylethane-1,2-diamine], the IC50 in assay [1] (Table 1, class symbols per key) is under 100 nM; in assay [2] (Table 1, class symbols per key), under 100 nM.
In the case of `Cc1c(NCCN2CCCC2)cc(OCCC(F)(F)F)cc1N1CCN(c2ncnc3[nH]nc(Br)c23)CC1` [Entry 284, 3-[4-(3-bromo-1H-pyrazolo[3,4-d]pyrimidin-4-yl)piperazin-1-yl]-2-methyl-N-(2-pyrrolidin-1-ylethyl)-5-[(3,3,3-trifluoropropyl)oxy]aniline], the IC50 was under 100 nM in assay [1] (Table 1, class symbols per key) and under 100 nM in assay [2] (Table 1, class symbols per key).
On to `c1ccc(N2CCN(c3ncnc4[nH]cnc34)CC2)cc1` [Entry 293, 6-(4-phenylpiperazin-1-yl)-9H-purine], for which the IC50 in assay [1] was at least 10000 nM; in assay [2], 1000 to 10000 nM.
For `Clc1ccc(N2CCN(c3ncnc4[nH]ccc34)CC2)cc1` [Entry 310, 4-[4-(4-chlorophenyl)piperazin-1-yl]-7H-pyrrolo[2,3-d]pyrimidine], the IC50 in assay [1] is at least 10000 nM; in assay [2], 1000 to 10000 nM.
As to `Clc1cc(Cl)cc(N2CCN(c3ncnc4[nH]nc(Br)c34)CC2)c1` [Entry 128, 3-bromo-4-[4-(3,5-dichlorophenyl)piperazin-1-yl]-1H-pyrazolo[3,4-d]pyrimidine], the IC50 in assay [1] (Table 1, class symbols per key) is at least 10000 nM; in assay [2] (Table 1, class symbols per key) it was 100 to 1000 nM.
Consider `Cc1ccc(Cl)cc1N1CCN(c2ncnc3[nH]ncc23)CC1` [Entry 320, 4-[4-(5-chloro-2-methylphenyl)piperazin-1-yl]-1H-pyrazolo[3,4-d]pyrimidine], for which the figures for the IC50 in assay [1] and in assay [2] were 1000 to 10000 nM and under 100 nM, respectively.
For `Cc1ccc(Cl)cc1N1CCN(c2ncnc3[nH]nc(C(C)C)c23)CC1` [Entry 351, 4-[4-(5-chloro-2-methylphenyl)piperazin-1-yl]-3-(1-methylethyl)-1H-pyrazolo[3,4-d]pyrimidine], the IC50 in assay [1] was 1000 to 10000 nM; in assay [2], under 100 nM.
Consider `Clc1cc(NCCN2CCCC2)cc(N2CCN(c3ncnc4[nH]nc(Br)c34)CC2)c1` [Entry 267, 3-[4-(3-bromo-1H-pyrazolo[3,4-d]pyrimidin-4-yl)piperazin-1-yl]-5-chloro-N-(2-pyrrolidin-1-ylethyl)aniline], for which the IC50 is under 100 nM in assay [1] (Table 1, class symbols per key) and under 100 nM in assay [2] (Table 1, class symbols per key).
`CCN1CCN(CCCOc2cc(Cl)cc(N3CCN(c4ncnc5[nH]nc(C(F)(F)F)c45)CC3)c2C)CC1` [Entry 71, 4-[4-(5-chloro-3-{[3-(4-ethylpiperazin-1-yl)propyl]oxy}-2-methylphenyl)piperazin-1-yl]-3-(trifluoromethyl)-1H-pyrazolo[3,4-d]pyrimidine]: the IC50 in assay [1] (Table 1, class symbols per key) is 100 to 1000 nM; in assay [2] (Table 1, class symbols per key), under 100 nM.
Regarding “3-[4-(3-bromo-1H-pyrazolo[3,4-d]pyrimidin-4-yl)piperazin-1-yl]-5-{[(difluoromethyl)oxy]meth-yl}-2-methyl-N-(2-pyrrolidin-1-ylethyl)aniline [Entry 254]”, the concentration for half-maximal inhibition (IC50) in assay [1] (Table 1, class symbols per key) was under 100 nM; in assay [2] (Table 1, class symbols per key), under 100 nM.
With `CCN1CCN(CCOc2cc(Cl)cc(N3CCN(c4ncnc5[nH]nc(Br)c45)CC3)c2C)CC1` [Entry 74, 3-bromo-4-[4-(5-chloro-3-{[2-(4-ethylpiperazin-1-yl)ethyl]oxy}-2-methylphenyl)piperazin-1-yl]-1H-pyrazolo[3,4-d]pyrimidine], the IC50 was under 100 nM in assay [1] (Table 1, class symbols per key) and under 100 nM in assay [2] (Table 1, class symbols per key).
On to `Cc1c(NCCN2CCCC2)cc(Cl)cc1N1CCN(c2ncnc3[nH]nc(CC(C)C)c23)CC1` [Entry 162, 5-chloro-2-methyl-3-{4-[3-(2-methylpropyl)-1H-pyrazolo[3,4-d]pyrimidin-4-yl]piperazin-1-yl}-N-(2-pyrrolidin-1-ylethyl)aniline], for which the IC50 in assay [1] (Table 1, class symbols per key) is 100 to 1000 nM; in assay [2] (Table 1, class symbols per key) it was under 100 nM.
On to `CN(C)CCOc1nccnc1N1CCN(c2ncnc3[nH]nc(Br)c23)CC1` [Entry 119, 2-({3-[4-(3-bromo-1H-pyrazolo[3,4-d]pyrimidin-4-yl)piperazin-1-yl]pyrazin-2-yl}oxy)-N,N-dimethylethanamine], for which the 50% inhibitory concentration (IC50) in assay [1] (Table 1, class symbols per key) fell in the range of 1000 to 10000 nM; in assay [2] (Table 1, class symbols per key), 100 to 1000 nM.
Consider `Cc1c(Br)cc(Cl)cc1N1CCN(c2nc(N)nc3[nH]ncc23)CC1` [Entry 159, 4-[4-(3-bromo-5-chloro-2-methylphenyl)piperazin-1-yl]-1H-pyrazolo[3,4-d]pyrimidin-6-amine], for which the half-inhibitory concentration (IC50) in assay [1] (Table 1, class symbols per key) is at least 10000 nM; in assay [2] (Table 1, class symbols per key) it was 1000 to 10000 nM.
In the case of “3-bromo-4-(4-{4-methyl-3′-[(2-pyrrolidin-1-yl-ethyl)oxy]biphenyl-3-yl}piperazin-1-yl)-1H-pyrazolo[3,4-d]pyrimidine [Entry 290]”, the IC50 in assay [1] and in assay [2] was under 100 nM throughout.
Consider `COc1ccc(-c2n[nH]c3ncnc(N4CCN(c5cc(Cl)ccc5C)CC4)c23)cc1` [Entry 356, 4-[4-(5-chloro-2-methylphenyl)piperazin-1-yl]-3-[4-(methyloxy)phenyl]-1H-pyrazolo[3,4-d]pyrimidine], for which the IC50 in assay [1] lay within 1000 to 10000 nM; in assay [2] it was 100 to 1000 nM.
As for `COC(=O)c1cc(Br)c(C)c(N2CCN(c3ncnc4[nH]nc(Br)c34)CC2)c1` [Entry 186, methyl 3-bromo-5-[4-(3-bromo-1H-pyrazolo[3,4-d]pyrimidin-4-yl)piperazin-1-yl]-4-methylbenzoate], the IC50 in assay [1] (Table 1, class symbols per key) is 100 to 1000 nM; in assay [2] (Table 1, class symbols per key) it was under 100 nM.
With `Cc1c(NCCN2CCCC2)cc(OCC(F)(CF)CF)cc1N1CCN(c2ncnc3[nH]nc(Br)c23)CC1` [Entry 230, 3-[4-(3-bromo-1H-pyrazolo[3,4-d]pyrimidin-4-yl)piperazin-1-yl]-5-{[2,3-difluoro-2-(fluoro-methyl)propyl]oxy}-2-methyl-N-(2-pyrrolidin-1-ylethyl)aniline], the half-maximal inhibitory concentration (IC50) was under 100 nM in assay [1] (Table 1, class symbols per key) and under 100 nM in assay [2] (Table 1, class symbols per key).
In the case of `Cc1ccc(Cl)cc1N1CCN(c2ncnc3[nH]nc(-c4ccccc4)c23)CC1` [Entry 327, 4-[4-(5-chloro-2-methylphenyl)piperazin-1-yl]-3-phenyl-1H-pyrazolo[3,4-d]pyrimidine], the 50% inhibitory concentration (IC50) in assay [1] was 1000 to 10000 nM; in assay [2], under 100 nM.
On to `Cc1c(NCCN(C)C)cc(OCC(C)(C)F)cc1N1CCN(c2ncnc3[nH]nc(Br)c23)CC1` [Entry 226, N′-{3-[4-(3-bromo-1H-pyrazolo[3,4-d]pyrimidin-4-yl)piperazin-1-yl]-5-[(2-fluoro-2-methylpropyl)oxy]-2-methylphenyl}-N,N-dimethyl-ethane-1,2-diamine], for which the IC50 in assay [1] (Table 1, class symbols per key) is under 100 nM; in assay [2] (Table 1, class symbols per key), under 100 nM.
`FC(F)(F)c1cc(N2CCN(c3ncnc4[nH]nc(Br)c34)CC2)c2ccccc2n1` [Entry 109, 4-[4-(3-bromo-1H-pyrazolo[3,4-d]pyrimidin-4-yl)piperazin-1-yl]-2-(trifluoromethyl)quinoline]: the IC50 in assay [1] (Table 1, class symbols per key) was at least 10000 nM; in assay [2] (Table 1, class symbols per key) it was under 100 nM.
In the case of `CCc1n[nH]c2ncnc(N3CCN(c4cc(Cl)cc(OC)c4C)CC3)c12` [Entry 126, 4-{4-[5-chloro-2-methyl-3-(methyloxy)phenyl]piperazin-1-yl}-3-ethyl-1H-pyrazolo[3,4-d]pyrimidine], the IC50 in assay [1] (Table 1, class symbols per key) is at least 10000 nM; in assay [2] (Table 1, class symbols per key), under 100 nM.
Turning to `Cc1ccc(Cl)cc1N1CCN(c2ncnc3[nH]nc(-c4cccc(N)c4)c23)CC1` [Entry 339, 3-{4-[4-(5-chloro-2-methylphenyl)piperazin-1-yl]-1H-pyrazolo[3,4-d]pyrimidin-3-yl}aniline], the IC50 was 1000 to 10000 nM in assay [1] and 100 to 1000 nM in assay [2].
On to `O=[N+]([O-])c1ccc(N2CCN(c3ncnc4[nH]nc(Br)c34)CC2)cc1` [Entry 97, 3-bromo-4-[4-(4-nitrophenyl)piperazin-1-yl]-1H-pyrazolo[3,4-d]pyrimidine], for which the IC50 is at least 10000 nM in assay [1] (Table 1, class symbols per key) and 100 to 1000 nM in assay [2] (Table 1, class symbols per key).
In the case of `Cc1c(CCCN2CCCC2)cc(Cl)cc1N1CCN(c2ncnc3[nH]nc(C#CCO)c23)CC1` [Entry 182, 3-(4-{4-[5-chloro-2-methyl-3-(3-pyrrolidin-1-ylpropyl)phenyl]piperazin-1-yl}-1H-pyrazolo[3,4-d]pyrimidin-3-yl)prop-2-yn-1-ol], the IC50 is under 100 nM in assay [1] (Table 1, class symbols per key) and under 100 nM in assay [2] (Table 1, class symbols per key).
Take `COc1cccc(N2CCN(c3ncnc4[nH]nc(Br)c34)CC2)c1` [Entry 65, 3-bromo-4-{4-[3-(methyloxy)phenyl]piperazin-1-yl}-1H-pyrazolo[3,4-d]pyrimidine]: the IC50 is 1000 to 10000 nM in assay [1] (Table 1, class symbols per key) and under 100 nM in assay [2] (Table 1, class symbols per key).

For the origin of these results see patent publication US8076338B2, “Kinase modulators and methods of use” (Exelixis, Inc., priority 2004, dated 2011).
